These results are taken from patent US11407737B2, “Inhibitors of RAF kinases” (Kinnate Biopharma Inc., priority 2020, dated 2022).

Read-outs that look alike come from different tables or passages of the source. A value given as a limit tells only on which side of the number the result lay.

In the experiment the target is human RAF1 (Homo sapiens (Human), UniProt P04049). Put plainly: Protein kinase assay (radiometric 33P-ATP, MEK1 (K97R) substrate), RAF-1. The experiment is classed as biochemical. The method, then:
Example 1: Kinase Assay Protocol
Assay platform was used to measure kinase/inhibitor interactions as described previously (Anastassiadis et al., 2011). In brief, for each reaction, kinase and substrate were mixed in a buffer containing 20 mM HEPES (pH 7.5), 10 mM MgCl2, 1 mM EGTA, 0.02% Brij35, 0.02 mg/mL BSA, 0.1 mM Na3VO4, 2 mM DTT, and 1% DMSO. All compounds were solubilized in DMSO. Compounds were then added to each reaction mixture via acoustic dispense using an ECHO 550 nanoliter dispenser. For human RAF1 testing, human MEK1 (K97R) was used as a substrate at a concentration of 3 micromolar, with a final ATP concentration of 10 micromolar. For human BRAF testing, human MEK1 (K97R) was used as a substrate at 1 micromolar concentration, with a final ATP concentration of 25 micromolar. […] After a 20-min incubation, ATP (Sigma-Aldrich, St. Louis, Mo. 63178) and [g33P] ATP (specific activity 10 microCi/microliter) purchased at PerkinElmer (Boston, Mass., 02118 Cat #BLU 003H250UC) were added at a final total concentration of […]. Reactions were carried out at room temperature for 2 hr and spotted onto P81 ion exchange cellulose chromatography paper (Reaction Biology). Filter paper was washed in 0.75% phosphoric acid to remove unincorporated ATP. The percent remaining kinase activity relative to a vehicle-containing (DMSO) kinase reaction was calculated for each kinase/inhibitor pair. IC50 values were calculated using Prism 5 (GraphPad).

Setting [1] is: human MEK1 (K97R) substrate 3 micromolar, ATP 10 micromolar, 10-dose, 3-fold serial dilution starting at 10 micromolar, read-out: RAF-1 IC50.

human RAF1, sequence (P04049 whole entry): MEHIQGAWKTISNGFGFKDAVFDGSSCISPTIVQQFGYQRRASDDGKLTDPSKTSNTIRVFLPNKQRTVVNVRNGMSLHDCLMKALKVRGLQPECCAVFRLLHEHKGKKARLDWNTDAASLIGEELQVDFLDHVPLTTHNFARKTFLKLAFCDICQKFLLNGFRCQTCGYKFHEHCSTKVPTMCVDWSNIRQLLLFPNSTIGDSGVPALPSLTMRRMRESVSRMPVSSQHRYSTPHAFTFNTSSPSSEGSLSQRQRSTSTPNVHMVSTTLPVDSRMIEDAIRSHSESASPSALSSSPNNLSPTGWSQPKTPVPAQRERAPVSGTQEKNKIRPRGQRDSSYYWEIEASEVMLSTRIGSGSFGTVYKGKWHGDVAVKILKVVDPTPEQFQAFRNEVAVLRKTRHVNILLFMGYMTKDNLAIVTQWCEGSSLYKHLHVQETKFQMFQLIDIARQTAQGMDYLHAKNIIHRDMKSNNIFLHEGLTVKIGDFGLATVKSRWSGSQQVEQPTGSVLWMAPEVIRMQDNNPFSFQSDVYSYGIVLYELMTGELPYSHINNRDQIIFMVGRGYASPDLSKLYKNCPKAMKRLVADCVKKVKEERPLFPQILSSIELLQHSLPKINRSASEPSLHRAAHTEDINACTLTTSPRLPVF

`Cc1cc(-c2cc(NC(=O)N3CC[C@@H](CC(F)(F)F)C3)ccc2C)cc(N2CCOCC2)n1` [Example 1, (3S)—N-[4-methyl-3-[2-methyl-6-(morpholin-4-yl)pyridin-4-yl]phenyl]-3-(2,2,2-trifluoroethyl)pyrrolidine-1-carboxamide]: under setting [1], the IC50 fell in the range of 1 to 10 nM.
On to `Cc1ccc(NC(=O)N2CC[C@@H](CC(F)(F)F)C2)cc1-c1cc(C2CCCN(C)C2)nc(N2CCOCC2)c1` (stereo partly drawn) [Example 29, (3S)—N-[4-methyl-3-[2-(1-methylpiperidin-3-yl)-6-(morpholin-4-yl)pyridin-4-yl]phenyl]-3-(2,2,2-trifluoroethyl)pyrrolidine-1-carboxamide], for which the IC50 under setting [1] lay in the range of 1 to 10 nM.
Still for that read-out and setting: the value for `Cc1cc(F)c(NC(=O)N2CC[C@H](C(F)(F)F)C2)cc1-c1cc(-c2cnn(C)c2)nc(N2CCOCC2)c1` [Example 76, (3S)—N-{2-fluoro-4-methyl-5-[2-(1-methylpyrazol-4-yl)-6-(morpholin-4-yl)pyridin-4-yl]phenyl}-3-(trifluoromethyl)pyrrolidine-1-carboxamide] was under 1 nM; that for `Cc1ccc(NC(=O)N2CC[C@@H](CC(F)(F)F)C2)cc1-c1cc(-c2ccnc(C(F)F)c2)nc(N2CCOCC2)c1` [Example 46, (3S)—N-[3-[2′-(difluoromethyl)-6-(morpholin-4-yl)-[2,4′-bipyridin]-4-yl]-4-methylphenyl]-3-(2,2,2-trifluoroethyl)pyrrolidine-1-carboxamide] was 1 to 10 nM; that for `Cc1ccc(NC(=O)N2CC=C(C(F)(F)F)C2)cc1-c1cc(-c2cnn(C)c2)nc(N2CCOCC2)c1` [Example 66, N-{4-methyl-3-[2-(1-methylpyrazol-4-yl)-6-(morpholin-4-yl)pyridin-4-yl]phenyl}-3-(trifluoromethyl)-2,5-dihydropyrrole-1-carboxamide] was under 1 nM.
On the same count and under the same terms, the value for `Cc1ccc(NC(=O)N2CC[C@@H](CC(F)(F)F)C2)cc1-c1cc(-c2cn(C)nn2)nc(N2CCOCC2)c1` [Example 14, (S)—N-(4-methyl-3-(2-(1-methyl-1H-1,2,3-triazol-4-yl)-6-morpholinopyridin-4-yl)phenyl)-3-(2,2,2-trifluoroethyl)pyrrolidine-1-carboxamide] was 1 to 10 nM; that for `Cc1ccc(NC(=O)N2CC[C@@H](CC(F)(F)F)C2)cc1-c1cc(-c2cncs2)nc(N2CCOCC2)c1` [Example 15, (3S)—N-[4-methyl-3-[2-(morpholin-4-yl)-6-(1,3-thiazol-5-yl)pyridin-4-yl]phenyl]-3-(2,2,2-trifluoroethyl)pyrrolidine-1-carboxamide] was 1 to 10 nM; that for `Cc1cc(F)c(NC(=O)N2CC=C(C(F)(F)F)C2)cc1-c1cc(-c2cnn(C)c2)nc(N2CCOCC2)c1` [Example 69, N-{2-fluoro-4-methyl-5-[2-(1-methylpyrazol-4-yl)-6-(morpholin-4-yl)pyridin-4-yl]phenyl}-3-(trifluoromethyl)-2,5-dihydropyrrole-1-carboxamide] was under 1 nM.
For `Cc1ccc(NC(=O)N2CC[C@@H](CC(F)(F)F)C2)cc1-c1cc(CCO)nc(N2CCOCC2)c1` [Example 32, (3S)—N-[3-[2-(2-hydroxyethyl)-6-(morpholin-4-yl)pyridin-4-yl]-4-methylphenyl]-3-(2,2,2-trifluoroethyl)pyrrolidine-1-carboxamide], under setting [1], the IC50 fell in the range of 1 to 10 nM.
The same measure, in the same setting: the result for `Cc1ccc(NC(=O)N2CC[C@@H](CC(F)(F)F)C2)cc1-c1cc(-c2ccn(C)n2)nc(N2CCOCC2)c1` [Example 36, (3S)—N-[4-methyl-3-[2-(1-methylpyrazol-3-yl)-6-(morpholin-4-yl)pyridin-4-yl]phenyl]-3-(2,2,2-trifluoroethyl)pyrrolidine-1-carboxamide] reads under 1 nM; that for `Cc1ccc(NC(=O)N2CC[C@@H](CC(F)(F)F)C2)cc1-c1cc(C2=CCN(C)C2)nc(N2CCOCC2)c1` [Example 35, (3S)—N-[4-methyl-3-[2-(1-methyl-2,5-dihydropyrrol-3-yl)-6-(morpholin-4-yl)pyridin-4-yl]phenyl]-3-(2,2,2-trifluoroethyl)pyrrolidine-1-carboxamide], 1 to 10 nM.
On the same count and under the same terms, the result for `Cc1ccc(NC(=O)N2CC[C@@H](CC(F)(F)F)C2)cc1-c1cc(-c2cnc(N)[nH]2)nc(N2CCOCC2)c1` [Example 43, (3S)—N-[3-[2-(2-amino-3H-imidazol-4-yl)-6-(morpholin-4-yl)pyridin-4-yl]-4-methylphenyl]-3-(2,2,2-trifluoroethyl)pyrrolidine-1-carboxamide] reads 1 to 10 nM; that for `Cc1ccc(NC(=O)N2CC[C@@H](CC(F)(F)F)C2)cc1-c1cc(-c2nncn2C)nc(N2CCOCC2)c1` [Example 61, (3S)—N-{4-methyl-3-[2-(4-methyl-1,2,4-triazol-3-yl)-6-(morpholin-4-yl)pyridin-4-yl]phenyl}-3-(2,2,2-trifluoroethyl)pyrrolidine-1-carboxamide], 1 to 10 nM; that for `Cc1ccc(NC(=O)N2CC[C@@H](CC(F)(F)F)C2)cc1-c1cc(-c2cnn(C(F)F)c2)nc(N2CCOCC2)c1` [Example 41, (3S)—N-(3-[2-[1-(difluoromethyl)pyrazol-4-yl]-6-(morpholin-4-yl)pyridin-4-yl]-4-methylphenyl)-3-(2,2,2-trifluoroethyl)pyrrolidine-1-carboxamide], 1 to 10 nM.
As to `Cc1ccc(NC(=O)N2CC[C@@H](CC(F)(F)F)C2)cc1-c1cc(-c2cnc(O)o2)nc(N2CCOCC2)c1` [Example 26, (3S)—N-[3-[2-(2-hydroxy-1,3-oxazol-5-yl)-6-(morpholin-4-yl)pyridin-4-yl]-4-methylphenyl]-3-(2,2,2-trifluoroethyl)pyrrolidine-1-carboxamide], the IC50 under setting [1] was under 1 nM.
For the compound `Cc1ccc(NC(=O)N2CC[C@@H](CC(F)(F)F)C2)cc1-c1cc(C(=O)NCCO)nc(N2CCOCC2)c1` [Example 4, N-(2-hydroxyethyl)-4-[2-methyl-5-[(3S)-3-(2,2,2-trifluoroethyl)pyrrolidine-1-carbonylamino]phenyl]-6-(morpholin-4-yl)pyridine-2-carboxamide], under setting [1], the IC50 fell in the range of 1 to 10 nM.
Take `Cc1ccc(NC(=O)N2CC[C@@H](CC(F)(F)F)C2)cc1-c1cc(-c2cc(N)n(C)n2)nc(N2CCOCC2)c1` [Example 44, (3S)-N-[3-[2-(5-amino-1-methylpyrazol-3-yl)-6-(morpholin-4-yl)pyridin-4-yl]-4-methylphenyl]-3-(2,2,2-trif1uoroethyl)pyrrolidine-1-carboxamide]: the 50% inhibitory concentration (IC50) under setting [1] was 1 to 10 nM.
The same measure, in the same setting: the value for `Cc1ccc(NC(=O)N2CC[C@@H](CC(F)(F)F)C2)cc1-c1cc(-c2cn[nH]c2)nc(N2CCOCC2)c1` [Example 33, (3S)—N-[4-methyl-3-[2-(morpholin-4-yl)-6-(1H-pyrazol-4-yl)pyridin-4-yl]phenyl]-3-(2,2,2-trifluoroethyl)pyrrolidine-1-carboxamide] was under 1 nM; that for `Cc1cc(F)c(NC(=O)N2CC[C@@H](CC(F)(F)F)C2)cc1-c1cc(C2CC2)nc(N2CCOCC2)c1` [Example 71, (3S)—N-{5-[2-cyclopropyl-6-(morpholin-4-yl)pyridin-4-yl]-2-fluoro-4-methylphenyl}-3-(2,2,2-trifluoroethyl)pyrrolidine-1-carboxamide] was under 1 nM; that for `Cc1ccc(NC(=O)N2CC[C@@H](CC(F)(F)F)C2)cc1-c1cc(-c2ccnn2C)nc(N2CCOCC2)c1` [Example 49, (3S)—N-[4-methyl-3-[2-(2-methylpyrazol-3-yl)-6-(morpholin-4-yl)pyridin-4-yl]phenyl]-3-(2,2,2-trifluoroethyl)pyrrolidine-1-carboxamide] was under 1 nM.
`Cc1ccc(NC(=O)N2CC[C@@H](CC(F)(F)F)C2)cc1-c1cc(C(=O)NC[C@@H](C)O)nc(N2CCOCC2)c1` [Example 5, N-[(2R)-2-hydroxypropyl]-4-[2-methyl-5-[(3S)-3-(2,2,2-trifluoroethyl)pyrrolidine-1-carbonylamino]phenyl]-6-(morpholin-4-yl)pyridine-2-carboxamide]: the half-maximal inhibitory concentration (IC50) fell in the range of 1 to 10 nM.
Consider `CCn1cc(-c2cc(-c3cc(NC(=O)N4CC[C@@H](CC(F)(F)F)C4)ccc3C)cc(N3CCOCC3)n2)cn1` [Example 78, (3S)—N-{3-[2-(1-ethylpyrazol-4-yl)-6-(morpholin-4-yl)pyridin-4-yl]-4-methylphenyl}-3-(2,2,2-trifluoroethyl)pyrrolidine-1-carboxamide], for which the half-maximal inhibitory concentration (IC50) under setting [1] was under 1 nM.
Same read-out and setting: the value for `Cc1ccc(NC(=O)N2CC[C@@H](CC(F)(F)F)C2)cc1-c1cc(C(F)F)nc(N2CCOCC2)c1` [Example 57, (3S)—N-{3-[2-(difluoromethyl)-6-(morpholin-4-yl)pyridin-4-yl]-4-methylphenyl}-3-(2,2,2-trifluoroethyl)pyrrolidine-1-carboxamide] was 1 to 10 nM.
For `Cc1ccc(NC(=O)N2CC[C@@H](CC(F)(F)F)C2)cc1-c1cc(C(=O)N[C@H](C)CO)nc(N2CCOCC2)c1` [Example 6, N-[(2R)-1-hydroxypropan-2-yl]-4-[2-methyl-5-[(3S)-3-(2,2,2-trifluoroethyl)pyrrolidine-1-carbonylamino]phenyl]-6-(morpholin-4-yl)pyridine-2-carboxamide], under setting [1], the half-inhibitory concentration (IC50) is 1 to 10 nM.
